Consider 3 compounds from PMC11720353, “Clove Essential Oil as a Source of Antitumoral Compounds Capable of Crossing the Blood–Brain Barrier: A Focus on the Effects of β-Caryophyllene and Eugenol in a Glioblastoma Cell Line” (International Journal of Molecular Sciences, 2024).

In data set [1] the test system is U87 cells. The experiment in a line: Metabolic activity (Alamar blue) assay and HSA synergy analysis. Type of data set: cell-based, human. Particulars: EU 2.5, 25, 200 µM or BCA 1.25, 12.5, 125 µM alone, 24-72 h. The method, then:
To evaluate the cytotoxic/antiproliferative potential of BCA and/or EU, the U87 and HMC3 cells were seeded, in triplicate, into 48-well culture plates (4 × 10^4 cells/well). After 24 h, the medium was replaced, and the cells were treated either with the vehicle (ethanol) or with different concentrations of EO single molecules, diluted in ethanol alone ([…]; BCA: 1.25 µM, µM, 125 µM) or in combination (EU 2 µM and BCA 1.25 µM; EU 20 µM and BCA 12.5 µM; and EU 200 µM and BCA 125 µM) in order to evaluate the possible synergistic effects. The final concentration of ethanol in the cell medium was kept lower than 0.1%. Non-treated cells were considered the control condition. Metabolic activity was evaluated using a modified Alamar blue® assay, as previously described. […] After 2 h of incubation at 5% CO2 and 37 °C, the absorbance was read at 570 and 600 nm in a BioTeck (BioTek Instruments, Inc., Winooski, VT, USA). The absorbance results were obtained using the Gen5 program. The metabolic activity was then calculated by the following equation: Metabolicactivity %=A570−A600 oftreated cells/A570−A600 ofcontrol cells×100 All data were analyzed using the software GraphPad Prism v.9.00 (GraphPad Software, San Diego, CA, USA). All in vitro experiments were performed in triplicate, and the acquired results were expressed as means ± SEM. […]

The subject of data set [2] is U87 cells. Nature of the data set: Clonogenic cell survival assay. Type of data set: cell-based, human. Particulars: EU 200 µM, BCA 125 µM, alone or in combination, 14 days. The method, then:
An evaluation of the antiproliferative effect via clonogenic assay on the tumoral U87 cells was performed using an adapted protocol from the previously described procedure. Briefly, U87 cells (0.8 × 10^3 cells/well) were seeded into 6-well plates and incubated for 24 h. After the incubation, based on the results obtained from the cell viability assay and synergistic score, the cells were treated either with EO single compounds diluted in ethanol alone (EU 200 µM and BCA 125 µM) or in combination for 14 days with the media being changed every 2/3 days. The cells without treatment were considered the control condition. Following the incubation, the cells were washed with PBS, fixed with paraformaldehyde (PFA) and stained with 0.1% crystal violet solution. The number of colonies was counted by microscopy, and the surviving fraction (SF) was calculated as the mean colonies/number of cells seeded.

Data set [3] concerns U87 cells. The experiment in a line: Cell death assay (Annexin V/PI, flow cytometry). Type of data set: cell-based, human. Particulars: EU 200 µM, BCA 125 µM, alone or in combination, 24 h. For orientation: Flow cytometry measures light scatter and fluorescence of single cells or particles in a stream.
Protocol: (§4) HMC3 and U87 cells were seeded in duplicate into 12-well plates (10 × 10^4 cells/well). After 24 h of incubation at 37 °C and 5% CO2, the medium was replaced, and the cells were treated either with EU (200 µM) or BCA (125 µM), alone and in combination (EU 200 µM + BCA 125 µM). Following the 24 h treatment, the cells were co-stained with AV-APC and PI according to the manufacturer’s protocol (Biolegend, San Diego, CA, USA). Briefly, the cells were resuspended in binding buffer (100 µL) and incubated with AV-APC solution (5 µL) and PI solution (2 µL) for 15 min at room temperature. Then, the cells were diluted in a binding buffer (400 µL). A six-parameter, four-color FACSCalibur flow cytometer (Becton Dickinson, San Jose, CA, USA) was used, and at least 10,000 events were collected by acquisition using CellQuest software (Becton Dickinson, San Jose, CA, USA). The results were analyzed with the Paint-a-Gate software and expressed in percentage (%).
The test system of data set [4] is HMC3 cells. Nature of the data set: Cell death assay (Annexin V/PI, flow cytometry). Type of data set: cell-based, human. Particulars: EU 200 µM, BCA 125 µM, alone or in combination, 24 h.
Protocol: as §4
Data set [5] relates to HMC3 cells. Nature of the data set: Cell cycle analysis (PI/RNase, flow cytometry). Type of data set: cell-based, human. Particulars: EU 200 µM, BCA 125 µM, alone or in combination, 24 h. The method, then: (§1) Analysis of the effect of BCA and/or EU on the cell cycle was assessed with flow cytometry using propidium iodide (PI)/RNase solution, according to the manufacturer’s protocol (Immunostep, Salamanca, Spain), as previously described. HMC3 and U87 cells (30 × 10^4 cells/well) were seeded in triplicate into 6-well plates and incubated for 24 h at 37 °C and 5% CO2. Thereafter, the cells were treated either with EU (200 µM) or BCA (125 µM) alone or in combination (EU 200 µM + BCA 125 µM). After 24 h, the cells were detached and fixed in 70% ethanol for 60 min at 4 °C, washed twice with PBS, and then stained with 500 µL of PI/RNase solution. The results were acquired using CellQuest software and expressed as the calculated percentage of the cell population in each cell cycle phase (G0/G1, S and G2/M) according to the PI intensity.

Data set [6] deals with U87 cells. The experiment in a line: Cell cycle analysis (PI/RNase, flow cytometry). In kind it is cell-based, human. Particulars: EU 200 µM, 24 h. The method, then: as §1
Data set [7] deals with HMC3 cells. The experiment in a line: Quantitative real-time PCR of mRNA levels. In kind it is cell-based, human. Particulars: 24 h. The method, then: (§2) An analysis of the genes involved in angiogenesis, tumor progression and proliferation were performed. In particular, we analyzed the genes involved in the cell cycle and in three different apoptotic pathways: B-cell lymphoma-2 (BCL2), Bcl-2-like protein 1 (BCL2L1), Bcl-2 Associated X-protein (BAX), BCL2 Antagonist/Killer 1 (BAK-1) and Caspase 9 (CASP9) as the key genes of the intrinsic mitochondrial pathway; and Phosphatase and tensin homolog (PTEN), Tumor protein p53 (TP53), Murine double minute 2 (MDM2), Cyclin-dependent kinase 4 (CDK4) and Vascular endothelial growth factor A (VEGFA) mRNA levels were assessed by quantitative real-time PCR (qRT-PCR). HMC3 and U87 cells were seeded with a density of 1 × 10^6 cells per well and incubated for 24 h at 37 °C and 5% CO2. Thereafter, the cells were treated either with EU (200 μM) or BCA (125 μM) alone and in combination (EU 200 μM + BCA 125 μM). Total RNA was extracted using the TripleXtractor solution (GRISP, Lisbon, Portugal) according to the manufacturer's protocol. RNA was converted into cDNA through the […] Synthesis Supermix (GRISP, Lisbon, Portugal). Each optimized reaction was performed using […] SYBR Green Mastermix 2X with […], Lisbon, Portugal) and subjected to the amplification protocol described by the manufacturer, using a melting temperature of 60 °C. The relative gene expression was determined by the 2^-ΔΔCt method and normalized on Glyceraldehyde-3-Phosphate Dehydrogenase (GAPDH), which was the endogenous reference and relative to the untreated cells (control condition).
A general note: Real-time PCR tracks product formation cycle by cycle.

In data set [8] the test system is U87 cells. The experiment in a line: Quantitative real-time PCR of mRNA levels. In kind it is cell-based, human. Particulars: 24 h. The method, then: as §2
Data set [9] relates to HMC3 cells. Nature of the data set: Inflammatory cytokines in conditioned media (Luminex/BioPlex). In kind it is cell-based, human. Particulars: EU 200 µM, BCA 125 µM, alone or in combination, 24 h. As to the method:
(§3) In order to determine the impact of BCA and/or EU on inflammatory cytokines levels, cytokine expression analyses (L-6, IL-4, IL-8 and TNF-α) were performed using a customized detection panel purchased from Bio-techne (Minneapolis, MN, USA). The cells were seeded, in triplicate, into 24-well culture plates (8 × 10^4 cells/well). After 24 h, the medium was replaced and the cells were treated either with the vehicle (ethanol) or with different concentrations of EO single compounds alone (EU: 2 µM, 20 µM, 200 µM; and BCA: 1.25 µM, 12.5 µM, 125 µM) or in combination (EU 2 µM + BCA 1.25 µM; EU 20 µM + BCA 12.5 µM; and EU 200 µM + BCA 125 µM). The final concentration of ethanol in the cell medium was kept lower than 0.1%. The ethanol 0.1%-treated cells were considered the control condition. After the 24 h treatment, supernatants were collected and centrifuged at 4,000× g for 10 min, and the samples were analyzed with the BioPlex 200 instrument (BioRad®, Hercules, CA, USA) following the manufacturer’s protocol.

Data set [10] relates to U87 cells. The description is as above. In kind it is cell-based, human. Particulars: EU 200 µM, BCA 125 µM, alone or in combination, 24 h. The method, then:
as §3

For data set [11] the following is noted: cited from earlier work.
The mark [12] stands for this setting: EU 200 µM, BCA 125 µM, alone or in combination.

SMILES strings stand for the structures. Like-named read-outs stand apart in the source and are kept apart here.

Turning to `C=CCc1ccc(O)c(OC)c1` [EU, 4-allyl-2-methoxyphenol], the “reduction in metabolic activity, single compounds” value in the data set on U87 cells [1] is “No reduction”. Further, the “decrease of clonal growth / colony formation with respect to control” value in the data set with U87 cells [2] is listed as −59.5%. Further, in the data set with U87 cells [3], the “live (viable) cells, change with respect to control” value is reported as “did not affect”. Further, the cell viability entry in the data set on HMC3 cells [4] is “did not affect”. In the data set with HMC3 cells [5], the “effect on cell cycle” value was “no effects”. Further, in the data set on U87 cells [6], the “effect on cell cycle” value is given as “no significant effect”. In the data set with HMC3 cells [7] (EU 200 µM or BCA 125 µM), the “PTEN mRNA expression, change vs control” value is given as “+42.2%”. Also, in the data set with HMC3 cells [7] (setting [12]), the “BAK1 mRNA expression, change vs control” value is given as “no effect”; the “BAX mRNA expression, change vs control” value was −29.7%; the “BCL2L1 mRNA expression, change vs control” value is recorded as −34.1%; the “BCL2 mRNA expression, change vs control” value is reported as −61.2%. Further, in the data set with HMC3 cells [7] (setting [12]), the “CASP9 mRNA expression, change vs control” value was “no effect”; the “CDK4 mRNA levels, change vs control” value was “no effects”; the “MDM2 mRNA expression, change vs control” value was −61.2%; the “TP53 mRNA expression, change vs control” value is recorded as “no effect”. In addition, the “VEGFA mRNA expression, change vs control” value in the data set with HMC3 cells [7] (setting [12]) is −31.5%. In addition, the “PTEN mRNA expression, change vs control” value with U87 cells [8] (EU 200 µM or BCA 125 µM) is given as “+86.4%”. Moreover, in the data set with U87 cells [8] (setting [12]), the “BAK1 mRNA expression, change vs control” value is “+32.3%”; the “BAX mRNA expression, change vs control” value is given as “+50.3%”; the “BCL2L1 mRNA expression, change vs control” value is −42.2%; the “BCL2 mRNA expression, change vs control” value was −45.6%. Moreover, in the data set on U87 cells [8] (setting [12]), the “CASP9 mRNA expression, change vs control” value is “no effect”; the “MDM2 mRNA expression, change vs control” value is on record as “no effect”; the “TP53 mRNA expression, change vs control” value was “+143.6%”; the “VEGFA mRNA expression, change vs control” value is given as “no effect”. Further, in the data set on U87 cells [8] (EU 200 µM, BCA 125 µM, alone or in combination, normalized to GAPDH), the “CDK4 mRNA levels, change vs control” value is recorded as −49.1%. For the same compound, in the data set with HMC3 cells [9], the “IL-4 levels, change vs control” value is reported as −26%. In the data set with U87 cells [10], the “IL-4 levels, change vs control” value was −31%; the “IL-6 secretion, change vs control” value is recorded as “None of the treatments modulated”; the “IL-8 secretion, change vs control” value was “unaffected”. Moreover, the “ability to cross the blood–brain barrier” value in data set [11] (rat, in vivo) was “high aptitude to cross the blood–brain barrier”.

`O=C/C=C/c1ccccc1` [cinnamaldehyde]: in [11] (rat, not told, po), the “ability to permeate the CNS” value was “inability to permeate the CNS”.

Regarding `C=C(C)[C@H]1CC=C(C)CC1` [limonene], the “ability to permeate the CNS” value in [11] (after oral administration) is “inability to permeate the CNS”.
